Test results from US8017162B2, “Anti-inflammatory agent” (Oryza Oil & Fat Chemical Co., Ltd., priority 2005, dated 2011).
Where “and” joins values, the source holds several entries; their conditions need not be identical. Equal values may be shown once. Entries after “also recorded” stand apart in the source; their conditions may differ.

Tests used:
[1] = test system: RAW264.7 cells; assay: NO production inhibition test (LPS, Griess Method); type: cell-based, mouse
Procedure: A 200 microliter each of the continuously-cultivated RAW264.7 cells (10^6 cells/mL) should be seeded into 48-well plate. After 24 hours, replace the culture medium with a serum-free culture medium. Then, add the LPS (final concentration: 10 microgram/mL) and samples (Examples 1 & 2), and then cultivate for 24 hours. Collect the supernatant (100 microliter) and determine the amount of NO by the Griess Method.

[2] = test system: RAW264.7 cells; assay: PGE2 produced by LPS stimulation in RAW264.7 cells; type: cell-based, mouse; conditions: 0.1 microgram/mL, single substance, P<0.01 vs LPS group
Procedure: Suspend mouse-derived macrophage-like cells RAW264.7 in the culture medium “Minimum Essential Medium (MEM)” containing a 0.1 mM nonessential amino acid mixture, 10% fetal calf serum (FCS), penicillin (100 units/mL), and streptomycin (100 microgram/mL) in concentration of 1×10^6 cells/mL. Then, the cells were seeded into 48-well plate (200 microliter/well).
In 48 to 72 hours after the cultivation, vacuum the culture medium. Then clean the culture medium thrice with the serum-free culture medium (which contains no FCS). Then, add the serum-free culture medium (170 microliter) to each well.
After that, add the LPS solution (10 microlitre) which was prepared to 200 microgram/mL in the serum-free culture medium, to each well (final concentration 10 microgram/mL). Then, add the serum-free culture medium (10 microliter) to the well of the control group. Add 20 microliter each of the red ginger extract sample solution which was prepared to be the concentrations of […] in the serum-free culture medium, and add indomethacin in concentration of 8.9 microgram/mL (equivalent to 25 microM) to three wells, each. (The final concentrations of the red ginger extract are to be 0.1, 0.3, 1, 3, and 10 microgram/mL, and the final concentration of indomethacin is to be 0.89microgram/mL which is equivalent to 2.5 microM). […]

[3] = test system: adjuvant arthritis; assay: Preventive effect on adjuvant arthritis: edema volume of the tarsus (footpad volume); type: in vivo, rats
Description: Firstly, subcutaneously administer the adjuvant to the right tarsus of the rats under the following condition so that the arthritis is caused in the mice. On the second day that the arthritis is induced, orally administer the red ginger extract to the rats for four consecutive weeks by the following method, and regularly observe the tarsus edema of the rats and the anti-inflammatory effect of the test substance. Weigh at once the two-day doses of the red ginger extract as the test substance described in Example 1, and use the red ginger extract suspended with the 0.5% CMC-Na. At this time, prepare the high-dose test substance (10 mg/5 mL/kg). Then, […] the liquid to prepare the low-dose test substance (1 mg/5 mL/kg). Weigh the necessary amount of Indomethacin (Lot No. 122K0718, Sigma-Aldrich, Inc.) which is commercially available. Then prepare freshly the positive control substance with the injection solvent until it becomes 0.5 mg/5 mL/kg. Then, dispose of it after all the administrations have been completed. 2. Firstly, obtain 28 mice (7-week-old, SD (CrjBgi:CD) IGS mice, male SPF) from ORIENT CO., LTD. Then, quarantine and naturalize the mice for more than 7 days. After observing the mice during the period of naturalization and quarantine, use the mice that are alive and which have no problems in the weight and general status. When the mice were grouped, the weight ranged from 279.3 to 328.7 g. When the inflammation was induced, the weight ranged from 283.7 to 333.9 g. When the autopsy was conducted, the weight ranged from 293.4 g to 440.8 g. 3. Administration The test substance was forcibly administered to the mice through a stomach sonde or syringe once a day for a period of 28 days after the inflammation was induced. As shown in the chart below, there are 4 groups, and each group has seven examples (i.e. 7 mice). The test substance was orally administered to each mouse for 28 days from the day after the inflammation was induced. During the period when the test substance was administered, the edema of the right tarsus of each mouse was X-rayed twice a week. From the day after the test was completed, the right and left tarsuses of each mouse were X-rayed twice a week, and the effect of the test substance on the bone was verified. The solution (1.0 mg/0.1 mL) was made from 1 mL of FREUND'S INCOMPLETE ADJUTANT (FIA) and 10 mg of killed bacteria (fungus body)—MYCOBACTERIUM BUTYRICUM (Lot Ni. 5129117, Difco). The FIA and the killed bacteria were sufficiently suspended, and then approx. […] of the solution was administered to the subcutaneous of the footpads of the right, hind leg of each mouse. To verify the degree and the increase of the edema volume before and after the adjuvant was induced, the footpad volume of the right hind leg was measured by using Digital Pletysmometer, LE7500 (Panlab SL, Spain) twice each time immediately before the adjuvant was induced, and again on Days 3, 6, 10, 13, 17, 20, 24 and 27 after the adjuvant was induced. Each measured value was determined by Dunnet's Test using the Graphad Instat Program (Ver. 4.5, USA), and the significant difference test was conducted.

[4] = test system: adjuvant arthritis; assay: Adjuvant arthritis: X-ray determination of tarsus and interphalangeal articulation (radiographic index); type: in vivo, rats; conditions: 0.5 mg/kg
Description: Firstly, subcutaneously administer the adjuvant to the right tarsus of the rats under the following condition so that the arthritis is caused in the mice. On the second day that the arthritis is induced, orally administer the red ginger extract to the rats for four consecutive weeks by the following method, and regularly observe the tarsus edema of the rats and the anti-inflammatory effect of the test substance. 2. Firstly, obtain 28 mice (7-week-old, SD (CrjBgi:CD) IGS mice, male SPF) from ORIENT CO., LTD. Then, quarantine and naturalize the mice for more than 7 days. After observing the mice during the period of naturalization and quarantine, use the mice that are alive and which have no problems in the weight and general status. When the mice were grouped, the weight ranged from 279.3 to 328.7 g. When the inflammation was induced, the weight ranged from 283.7 to 333.9 g. When the autopsy was conducted, the weight ranged from 293.4 g to 440.8 g. 3. Administration The test substance was forcibly administered to the mice through a stomach sonde or syringe once a day for a period of 28 days after the inflammation was induced. As shown in the chart below, there are 4 groups, and each group has seven examples (i.e. 7 mice). The test substance was orally administered to each mouse for 28 days from the day after the inflammation was induced. During the period when the test substance was administered, the edema of the right tarsus of each mouse was X-rayed twice a week. From the day after the test was completed, the right and left tarsuses of each mouse were X-rayed twice a week, and the effect of the test substance on the bone was verified. The solution (1.0 mg/0.1 mL) was made from 1 mL of FREUND'S INCOMPLETE ADJUTANT (FIA) and 10 mg of killed bacteria (fungus body)—MYCOBACTERIUM BUTYRICUM (Lot Ni. 5129117, Difco). The FIA and the killed bacteria were sufficiently suspended, and then approx. […] of the solution was administered to the subcutaneous of the footpads of the right, hind leg of each mouse. On the 27th day after the administration was begun, the edema was taken out. The hind leg was affixed with the neutral buffered formalin fixative (10%), and the image of the tarsus articulation area, including the interphalangeal articulation, was taken by a soft X-ray. The tarsus articulation and the interphalangeal articulation were verified by the degrees between −(normal status) and 5+(most serious status). A radiographic index was obtained by the method as shown in Chart 2, below. Add up the figures to determine the severity of the articular destruction. [table]

[5] = test system: NO production; conditions: concentration of 21.5 to 215 microgram/mL (FIG. 9); cited from earlier work
[6] = right leg, individual animals, listed as Indomet hacin
[7] = right leg, individual animals, listed as indomethacin

## CCCCC[C@H](O)CC(=O)CCc1ccc(O)c(OC)c1 [Example 6-gingerol, 6-gingerol]
[1]; 1 μg/mL, LPS 10 microgram/mL, 24 hours, average ± SD
  NO in supernatant: 3.50 ± 0.26 µM
[1]; 3 μg/mL
  NO in supernatant: 3.66 ± 0.33 µM
[1]; 10 μg/mL
  NO in supernatant: 3.27 ± 0.26 µM
[1]; 30 μg/mL
  Inhibition ratio (NO production): (4.3) %
  NO in supernatant: 3.11 ± 0.22 µM
[1]; 100 μg/mL
  Inhibition ratio (NO production): (17.6) %
  NO in supernatant: 2.81 ± 0.47 µM
[2]
  Inhibition ratio of PGE2 production: 37.8%

## COc1ccc2c(c1)c(CC(=O)O)c(C)n2C(=O)c1ccc(Cl)cc1 [Indomethacin]
[3]; 0.5 mg/kg oral once a day, Day 0 (before induction)
  Edema volume of the tarsus, right tarsus: 1.81 ± 0.07 mL
[3]; 0.5 mg/kg, Day 3
  Edema volume of the tarsus, right tarsus: 3.35 ± 0.18 mL
[3]; 0.5 mg/kg, Day 3, listed as indomethacin
  Edema volume of the tarsus, right tarsus: 3.35 mL
[3]; 0.5 mg/kg, Day 6
  Edema volume of the tarsus, right tarsus: 3.69 ± 0.40 mL
[3]; 0.5 mg/kg, Day 10
  Edema volume of the tarsus, right tarsus: 3.69 ± 0.36 mL
[3]; 0.5 mg/kg, Day 13
  Edema volume of the tarsus, right tarsus: 3.40 ± 0.43 mL
[3]; 0.5 mg/kg, Day 17
  Edema volume of the tarsus, right tarsus: 3.11 ± 0.59 mL
[3]; 0.5 mg/kg, Day 20
  Edema volume of the tarsus, right tarsus: 3.18 ± 0.52 mL
[3]; 0.5 mg/kg, Day 24
  Edema volume of the tarsus, right tarsus: 3.19 ± 0.51 mL
[3]; 0.5 mg/kg, Day 24, listed as indomethacin
  Edema volume of the tarsus, right tarsus: 3.19 mL
[3]; 0.5 mg/kg, Day 27
  Edema volume of the tarsus, right tarsus: 2.89 ± 0.34 mL
[4]
  Degree of disorder compared to the vehicle group: remarkably suppressed
[4]; right leg, individual animals
  Result (X-ray determination): 2+ (Moderate(−): 2+; 2points)
[4]; [6]
  Interphal angeal articulation: Bone destruction: − (Normal: −; 0 point); also recorded: + (Mild: +; 1 point)
  Interphal angeal articulation: Periostitis: + (Mild: +; 1 point); also recorded: − (Normal: −; 0 point)
  Interphal angeal articulation: Total: 1 points (5×) and 0 points and 2 points
  Tarsus articulation: Bone destruction: − (Normal: −; 0 point); also recorded: + (Mild: +; 1 point)
  Tarsus articulation: Periostitis: 2+ (Moderate(−): 2+; 2points) (6×) and 3+ (Moderate(+): 3+; 3 ponts)
  Tarsus articulation: Total: 2 points (2×) and 3 points (4×) and 4 points
[4]; [7]
  Interphal angeal articulation: Bone destruction: + (Mild: +; 1 point)
  Interphal angeal articulation: Periostitis: + (Mild: +; 1 point)
  Tarsus articulation: Bone destruction: + (Mild: +; 1 point)

## Cl.N[C@H]1C(O)O[C@H](CO)[C@@H](O)[C@@H]1O (stereo partly shown) [glucosamine hydrochloride]
[5]
  Inhibitory effect on NO production: has the inhibitory effect on NO production
